Source: US20110256241A1, “METHODS AND COMPOSITIONS FOR THE TREATMENT OF CANCER” (TRASLATIONAL CANCER DRUGS PHARMA, S.L., priority 2008, published 2011)

What was measured:
[1] = system: primary cultures of tumours of patients with NSCLC; assay: Primary cultures of NSCLC tumours, crystal violet quantification; format: cell-based, human; conditions: primary NSCLC tumour cultures, 0-20 μM, 10 days
Protocol: Resected tissues from NSCLC patients were dissociated (Cell dissociation sieve-tissued grinder Kit CD1, SIGMA), and the obtained cells were seeded in 24 well plates (BD, Falcon, Bioscience, San Jose, Calif., USA). […] The final persistent population in each well was quantified by the method of Cristal Violet as previously described (Rodríguez-González, A. et al., Oncogene, 22:8803-8812). […]

H460 xenografts = assay: NSCLC xenografts, in vivo tumor growth inhibition; conditions: FIG. 7A, single agents
Protocol: Indicated cells were resuspended in DMEM just before inoculation (10^6 cells/0.1 ml), and injected subcutaneously in nu/nu immunosuppressed mice. Mice were kept under standard laboratory conditions according to the guidelines of the Spanish Government. When tumours reached a mean volume of 0.1 cm^3, mice were randomized to control and treated groups. Treatments with the antitumoral agents (and vehicle for control mice) were performed i.p. with following the indicated schedules. Tumors were monitored three times a week by measuring the major (D) and minor (d) diameters, and tumour volume was calculated by V=(D*d^2)/2. Statistical analysis of significant changes in tumour growth was calculated using SPSS software v. 13.0.

H460 cells [2] = assay: Affymetrix gene expression analysis of 5-FU metabolization pathway; format: cell-based, human; set-up: key to RRM2 (Ribonucleotide Reductase) gene expression / TYMS (Thymidylate synthetase) gene expression / DUT (Deoxyuridine triphosphatase) gene expression: Signal Log Ratio, base 2 (1.0 = 2-fold increase, 0 = no change)
Protocol: The RNAs from the biopsies selected were isolated for microarrays and QT-PCR, using RNeasy Mini Kit (QIAGEN, Hilden, Germany) following the instructions of the manufactures. Samples were prepared and the array hybridized according to the Affymetrix GeneChip Expression Analysis Technical Manual. Hybridization to Affymetrix U133plus2 GeneChips (54,614 probe sets, representing 47,000 transcripts), staining, washing and scanning procedures were carried out at the Genomic Facility in the National Center of Biotechnology (Madrid, Spain) as described in www.affymetrix.com (Affymetrix, Santa Clara, Calif.). The Signal Log Ratio estimates the magnitude and direction of change of a transcript. The log scale used is base 2, thus a Signal Log Ratio of 1.0 indicates an increase of the transcript level by 2 fold and −1.0 indicates a decrease by 2 fold. A Signal Log Ratio of zero would indicate no change.
With the aim of further investigating the mechanism of ChoKIs sensitization to the antitumoral effect of 5-FU, a gene expression analysis of the 5-FU-metabolisation pathway was performed in H460 cells treated at different times with MN58b and RSM-932A using affymetrix technology.

[3] = system: Primary BEC (human primary bronchial epithelial cells); assay: Cell proliferation assay (MTT); format: cell-based; conditions: 48 h, inhibitor and unit not printed in table (MN58b, μM), read-out: IC50 48 h
Protocol: (§1) All cell lines used in this study were maintained under standard conditions of temperature (37° C.), humidity (95%), and carbon dioxide (5%). Human primary bronchial epithelial cells, NHBE (BEC) (Cambrex, CC-2541) were grown in BEGM (Bronchial Epithelial cell growth media) BulletKit (Cambrex, CC-3170). Human primary mammary epithelial cells, HMEC (Clonetics, CC-2551) were grown in MEBM medium supplemented with a bullet kit (Clonetics, CC-3150). Epithelial non-small lung cancer cells H460 and H1299, and small cell lung cancer cell lines H510 and H82 were maintained in RPMI supplemented with 10% Fetal Bovine Serum (FBS) (Life Technologies, Grand Island, N.Y.).
(§2) Cells were seeded on 96-well plates (BD, Falcon, Bioscience, San Jose, Calif., USA) at a density of 6000 cells/well, and incubated for 24 h under standard conditions. […] Absorbance is read at 595 nm in a VersaMax Microplate Reader (Molecular Devices, Sunnyvale, Calif., USA). For sensitization with acid ceramidase inhibitor, cells were pre-treated 4 hours with the correspondent IC50 for NOE before treatment with ChoK inhibitors. NOE (N-Oleoyl ethanolamine) was obtained from Calbiochem (La Jolla, Calif., USA).

H460 cells [4] = assay: Cell proliferation assay (MTT); format: cell-based, human
Protocol: as §1
as §2, with “conditions. Then, cells were treated with different concentrations of the ChoK inhibitors (quadruplicates of each concentration) and maintained for 72 hours.” for “conditions.”
Thus, disruption in the levels of acid ceramidase may allow ChoK inhibitors to have a better effect in these cells. To verify this hypothesis, we used the previously characterized acid ceramidase inhibitor, N-Oleoylethanolamine (NOE) (Grijalvo S., Chem Phys Lipids. 2006; 144:69-84), to investigate if the inhibition of acid ceramidase sensitizes tumour cell lines to ChoK inhibitors. To that end, H460 cells were pre-treated with NOE for three hours to inhibit acid ceramidase.
H460 cells were pre-treated with these compounds for three hours to inhibit ceramidases. […] Furthermore, the combined use of ChoK inhibitors and acid ceramidase inhibitors provides a further stronger anticancer activity.

CN(C)c1cc[n+](Cc2ccc(CCCCc3ccc(C[n+]4ccc(N(C)C)cc4)cc3)cc2)cc1 [MN58b, 1,4-(4-4′-Bis-((4-(dimethylamine)pyridinium-1-yl)methyl)diphenyl)butane dibromide]
RESISTANT (number of samples) [1]: 28
SENSITIVES (number of samples) [1]: 35
Statistical significance (p), tumour growth (H460 xenografts): 0.09
DUT (Deoxyuridine triphosphatase) gene expression (H460 cells [2]; H460, 9 h): −1.17
RRM2 (Ribonucleotide Reductase) gene expression (H460 cells [2]; H460, 9 h): −1.48
TYMS (Thymidylate synthetase) gene expression (H460 cells [2]; H460, 9 h): −1.30
UPP1 (Uridine phosphorylase 1) gene expression (H460 cells [2]; H460, 9 h): +1.54
DUT (Deoxyuridine triphosphatase) gene expression (H460 cells [2]; H460, 24 h): −2.03
RRM2 (Ribonucleotide Reductase) gene expression (H460 cells [2]; H460, 24 h): −2.50
TYMS (Thymidylate synthetase) gene expression (H460 cells [2]; H460, 24 h): −2.39
UPP1 (Uridine phosphorylase 1) gene expression (H460 cells [2]; H460, 24 h): +1.76
IC 50 [3]: 40.5 ± 6.2 µM
figure in parentheses after IC50 48 h (not defined; fold vs primary cells) (H460 cells [4]): 6
figure in parentheses after IC50 72 h (not defined; fold vs primary cells) (H460 cells [4]): 8
figure in parentheses after IC50 144 h (not defined; fold vs primary cells) (H460 cells [4]): 3
